Results published in US7820833B2, “Dithio compounds” (Marquette University, priority 2005, dated 2010).

Experiment: FRET-based detection of thiols with coumarin-DAP-FITC
Conditions: 5 μM probe, Hepes pH 7.0; excitation 300 to 330 nm; no DTT
Procedure: FIG. 18. FRET-based detection of thiols: (a) R^1—S—S—R^2 probe with FRET capability (coumarin-DAP-FITC); (b) Fluorescence emission of coumarin-DAP-FITC at different excitation wavelengths; (c) Fluorescence emission of coumarin DAP-FITC after treatment with 1 mM DTT reductant (5 min) at different excitation wavelengths.
Hepes (pH 7.0) buffer was used in this study (FIG. 18) and fluorescence readings were made on a BMG Polarstar Galaxy fluorescence plate reader and/or on a Jasco FP-6500 spectrofluorometer. […] The probe (5 μM) was transferred to a 4 mL fluorescence cell and a three dimensional fluorescence spectra was recorded with excitation wavelength from 300 nm to 400 nm and emission wavelength from 400 nm to 600 nm. The coumarin chromophone has maximum excitation wavelength in the range of 310 to 325 nm and emits in the range of 400 nm to 425 nm. […] Analogues of this coumarin-DAP-FITC FRET pair can be used to tune excitation wavelengths in the range of 280 to 400 nm by placing different substitutions on the coumarin core. This includes using commercially available coumarin compounds and also coumarin compounds synthesized with functional groups like NO2, CN, NH2, COOH, CHO, alkyl, benzyl, pyridyl, naphthyl, indoles, etc at any of the synthetically feasible positions on benzyl ring of coumarin or lactone ring of coumarin. […]

fluorescence emission of intact probe: emission is only from FITC at 520 nm
SMILES: Cc1cc(=O)oc2cc(SSc3ccc(C(=S)Nc4ccc(C(=O)O)c(-c5c6ccc(=O)cc-6oc6cc(O)ccc56)c4)cc3)ccc12 [coumarin-DAP-FITC, 2-(6-Hydroxy-3-oxo-3H-xanthen-9-yl)-4-[4-(4-methyl-2-oxo-2H-chromen-7-yldisulfanyl)-thiobenzoylamino]-benzoic acid]
